Activity calls are given as the source filed them.
How the values were obtained:
[1] = target: Cytochrome P450 2C9 (Homo sapiens, UniProt P11712)
[2] = target: T1, Protein RecA (Mycobacterium tuberculosis, UniProt P9WHJ3); test: Fluorescence Cell-Free Homogeneous Dose Retest to Identify Inhibitors of RecA-Intein Splicing Activity. [Related pubchem assays (depositor defined):AID2097, AID2223, AID489010, AID492950]; format: functional
T1 sequence (P9WHJ3 whole entry): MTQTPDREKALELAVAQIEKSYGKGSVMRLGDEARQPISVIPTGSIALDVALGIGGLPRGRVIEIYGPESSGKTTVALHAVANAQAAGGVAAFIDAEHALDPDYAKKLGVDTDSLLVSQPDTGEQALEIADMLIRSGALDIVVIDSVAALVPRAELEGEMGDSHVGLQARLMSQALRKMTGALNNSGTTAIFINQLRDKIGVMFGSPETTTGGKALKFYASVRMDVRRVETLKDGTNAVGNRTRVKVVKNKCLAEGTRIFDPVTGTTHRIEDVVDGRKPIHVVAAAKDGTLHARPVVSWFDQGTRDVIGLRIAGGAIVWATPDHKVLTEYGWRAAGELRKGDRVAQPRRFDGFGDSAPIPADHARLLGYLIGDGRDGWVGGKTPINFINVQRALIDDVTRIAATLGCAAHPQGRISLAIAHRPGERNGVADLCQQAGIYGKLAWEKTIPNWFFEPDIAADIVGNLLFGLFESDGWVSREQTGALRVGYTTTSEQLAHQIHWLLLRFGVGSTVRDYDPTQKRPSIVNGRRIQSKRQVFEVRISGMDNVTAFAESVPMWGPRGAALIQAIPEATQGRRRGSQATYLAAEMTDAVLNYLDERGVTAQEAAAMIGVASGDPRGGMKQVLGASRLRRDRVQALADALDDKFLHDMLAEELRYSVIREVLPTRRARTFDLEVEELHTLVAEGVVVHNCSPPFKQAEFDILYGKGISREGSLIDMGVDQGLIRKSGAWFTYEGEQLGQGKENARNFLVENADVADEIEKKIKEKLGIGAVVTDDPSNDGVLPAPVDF

[3] = target: T2, Replicative DNA helicase DnaB (Mycobacterium tuberculosis, UniProt P9WMR3); test: DnaB intein splicing inhibitors, dose response, biochemical, cell-free fluorescence (AID 449749); format: functional
T2 sequence (P9WMR3 whole entry): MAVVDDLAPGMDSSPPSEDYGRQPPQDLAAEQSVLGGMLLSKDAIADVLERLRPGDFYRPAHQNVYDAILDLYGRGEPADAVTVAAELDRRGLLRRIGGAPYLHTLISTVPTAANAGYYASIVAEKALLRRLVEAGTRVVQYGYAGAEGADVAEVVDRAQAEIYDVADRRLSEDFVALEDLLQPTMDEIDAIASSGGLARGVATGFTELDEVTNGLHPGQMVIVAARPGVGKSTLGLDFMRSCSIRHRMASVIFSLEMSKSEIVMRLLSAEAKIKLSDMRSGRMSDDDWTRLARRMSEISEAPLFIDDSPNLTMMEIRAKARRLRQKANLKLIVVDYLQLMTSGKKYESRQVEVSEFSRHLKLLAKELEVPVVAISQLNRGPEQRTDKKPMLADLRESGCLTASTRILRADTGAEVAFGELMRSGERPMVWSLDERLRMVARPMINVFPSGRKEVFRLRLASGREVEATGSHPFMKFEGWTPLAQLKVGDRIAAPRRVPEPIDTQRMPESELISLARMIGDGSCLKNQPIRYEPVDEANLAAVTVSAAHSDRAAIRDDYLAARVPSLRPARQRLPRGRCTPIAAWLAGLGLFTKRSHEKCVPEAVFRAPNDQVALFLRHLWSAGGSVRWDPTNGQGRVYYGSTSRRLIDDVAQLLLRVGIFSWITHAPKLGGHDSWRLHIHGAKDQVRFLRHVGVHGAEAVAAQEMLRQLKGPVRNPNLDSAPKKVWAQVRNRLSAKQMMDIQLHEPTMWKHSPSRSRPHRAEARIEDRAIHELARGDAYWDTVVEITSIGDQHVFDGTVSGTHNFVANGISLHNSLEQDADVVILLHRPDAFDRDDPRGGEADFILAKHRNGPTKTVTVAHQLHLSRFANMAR

[4] = target: T3, Cytochrome P450 1A2 (Homo sapiens, UniProt P05177);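 note: PubChem cytochrome P450 panel assay, CYP1A2 panel member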
T3 sequence (P05177 whole entry): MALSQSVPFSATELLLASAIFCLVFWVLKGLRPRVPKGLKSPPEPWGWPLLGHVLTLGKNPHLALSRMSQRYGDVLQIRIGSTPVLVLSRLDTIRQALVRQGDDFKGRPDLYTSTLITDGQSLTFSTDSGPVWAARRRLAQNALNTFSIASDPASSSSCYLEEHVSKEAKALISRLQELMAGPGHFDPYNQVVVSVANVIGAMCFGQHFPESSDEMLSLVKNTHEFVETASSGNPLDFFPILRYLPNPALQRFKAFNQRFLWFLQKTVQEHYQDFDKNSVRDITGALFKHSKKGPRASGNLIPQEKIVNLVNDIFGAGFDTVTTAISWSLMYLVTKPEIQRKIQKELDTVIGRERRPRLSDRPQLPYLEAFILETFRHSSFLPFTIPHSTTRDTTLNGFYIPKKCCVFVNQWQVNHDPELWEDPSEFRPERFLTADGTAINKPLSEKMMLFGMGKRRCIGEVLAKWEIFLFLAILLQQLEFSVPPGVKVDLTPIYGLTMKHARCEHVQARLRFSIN

[5] = target: T4, Heat shock factor protein 1 (Mus musculus, UniProt P38532); test: enhancement of HSF1-driven luciferase signal – cell-based, NIH3T3, luminescence, dose retest, confirmation (AID 435004); format: functional;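 note: stress induced by proteasome inhibitor MG132 added 30 min after compound; luciferase reporter driven by HSF1 response element in NIH3T3 cells; actives raise luminescence as potentiators of the MG132 stress response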
T4 sequence (P38532 whole entry): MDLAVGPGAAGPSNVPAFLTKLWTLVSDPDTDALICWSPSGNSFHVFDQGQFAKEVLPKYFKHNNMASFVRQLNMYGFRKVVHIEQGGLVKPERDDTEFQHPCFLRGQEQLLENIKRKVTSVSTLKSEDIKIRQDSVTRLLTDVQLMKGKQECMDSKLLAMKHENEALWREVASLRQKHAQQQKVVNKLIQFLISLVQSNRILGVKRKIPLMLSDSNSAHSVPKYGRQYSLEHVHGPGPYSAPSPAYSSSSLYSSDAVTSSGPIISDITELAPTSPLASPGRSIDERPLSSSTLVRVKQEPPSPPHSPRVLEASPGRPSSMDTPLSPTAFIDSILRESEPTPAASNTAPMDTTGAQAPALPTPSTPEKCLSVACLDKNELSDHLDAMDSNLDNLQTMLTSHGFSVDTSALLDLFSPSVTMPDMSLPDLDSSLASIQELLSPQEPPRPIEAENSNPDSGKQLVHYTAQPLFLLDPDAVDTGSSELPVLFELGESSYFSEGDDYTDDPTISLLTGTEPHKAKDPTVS

[6] = target: Cytochrome P450 3A4 (Homo sapiens, UniProt P08684);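 note: CYP3A4 tested as one member of a cytochrome P450 panel screen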
Chain of Cytochrome P450 3A4 (P08684 whole entry): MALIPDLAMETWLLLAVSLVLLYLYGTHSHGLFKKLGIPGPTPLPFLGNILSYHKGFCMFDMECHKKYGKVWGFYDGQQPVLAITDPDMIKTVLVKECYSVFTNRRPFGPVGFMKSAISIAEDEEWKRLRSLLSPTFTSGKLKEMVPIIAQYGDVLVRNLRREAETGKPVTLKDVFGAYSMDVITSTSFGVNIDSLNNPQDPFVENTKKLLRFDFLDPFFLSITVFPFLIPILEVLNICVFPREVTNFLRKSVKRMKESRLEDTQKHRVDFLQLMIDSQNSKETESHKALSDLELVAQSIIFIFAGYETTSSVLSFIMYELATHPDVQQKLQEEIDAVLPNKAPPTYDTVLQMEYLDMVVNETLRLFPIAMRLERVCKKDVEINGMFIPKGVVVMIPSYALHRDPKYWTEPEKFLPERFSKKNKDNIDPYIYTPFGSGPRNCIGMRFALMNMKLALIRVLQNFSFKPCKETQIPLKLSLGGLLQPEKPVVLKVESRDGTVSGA

[7] = target: Cytochrome P450 2C19 (Homo sapiens, UniProt P33261); test: Cytochrome panel assay with activity outcomes. Panel member name: p450-cyp2c19 Compounds with AC50 equal or less than 10 uM are considered active; format: functional; conditions: read-out: AC50
Chain of Cytochrome P450 2C19 (P33261 whole entry): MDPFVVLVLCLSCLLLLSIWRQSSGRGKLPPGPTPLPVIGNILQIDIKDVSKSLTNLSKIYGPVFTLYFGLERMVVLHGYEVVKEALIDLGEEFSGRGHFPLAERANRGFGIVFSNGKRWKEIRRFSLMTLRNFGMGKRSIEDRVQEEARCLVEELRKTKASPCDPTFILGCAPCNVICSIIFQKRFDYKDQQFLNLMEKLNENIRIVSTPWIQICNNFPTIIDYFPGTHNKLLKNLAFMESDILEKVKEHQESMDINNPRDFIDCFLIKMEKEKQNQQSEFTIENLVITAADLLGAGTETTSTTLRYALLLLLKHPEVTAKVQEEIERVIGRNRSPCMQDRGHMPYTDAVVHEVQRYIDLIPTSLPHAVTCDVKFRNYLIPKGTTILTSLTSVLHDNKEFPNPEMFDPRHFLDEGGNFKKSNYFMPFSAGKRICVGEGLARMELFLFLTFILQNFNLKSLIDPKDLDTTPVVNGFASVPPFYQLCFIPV

[8] = NIH3T3 cell viability loss – ATP luminescence, mouse fibroblasts, counter-screen, dose response (AID 2010); format: functional, cell-based;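 note: cells exposed to compound for about 90 hours before reading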
[9] = Trypanosoma cruzi growth suppression in host cells – NIH3T3 host cells, beta-gal luminescence, confirmation (AID 2044); format: functional, cell-based;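 note: intracellular parasites grown in NIH/3T3 mouse fibroblasts as host cells; luminescent beta-galactosidase reporter signal from transgenic T. cruzi replicating inside host cells; inhibitors lower the luminescence signal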
[10] = Luminescence Cell-Based Dose Retest to Confirm Inhibitors of Cancer Stem Cells. [Related pubchem assays (depositor defined):AID2717, AID2721]; format: functional; conditions: Homo sapiens
[11] = target: Paired box protein Pax-8 (Homo sapiens, UniProt Q06710); test: PAX8 transcriptional activity inhibition in RMG-I – RMG-I cells, luciferase, cherry-pick, dose response (AID 687027); format: functional, cell-based;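 note: luciferase reporter driven by Pax8 target thyroperoxidase promoter measured by SteadyGlo luminescence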
Chain of Paired box protein Pax-8 (Q06710 whole entry): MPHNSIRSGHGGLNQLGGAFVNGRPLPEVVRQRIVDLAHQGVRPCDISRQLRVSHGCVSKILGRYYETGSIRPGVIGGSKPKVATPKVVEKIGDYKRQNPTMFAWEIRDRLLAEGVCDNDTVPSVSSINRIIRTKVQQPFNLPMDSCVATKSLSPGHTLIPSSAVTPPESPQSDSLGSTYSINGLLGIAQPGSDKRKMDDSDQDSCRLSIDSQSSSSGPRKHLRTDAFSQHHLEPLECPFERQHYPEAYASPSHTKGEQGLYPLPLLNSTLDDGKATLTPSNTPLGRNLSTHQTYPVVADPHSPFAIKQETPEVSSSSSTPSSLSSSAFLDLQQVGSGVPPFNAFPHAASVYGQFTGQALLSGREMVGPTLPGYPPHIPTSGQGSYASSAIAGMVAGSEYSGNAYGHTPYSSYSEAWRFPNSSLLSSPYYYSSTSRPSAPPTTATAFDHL

Chain of Cytochrome P450 2C9 (P11712 whole entry): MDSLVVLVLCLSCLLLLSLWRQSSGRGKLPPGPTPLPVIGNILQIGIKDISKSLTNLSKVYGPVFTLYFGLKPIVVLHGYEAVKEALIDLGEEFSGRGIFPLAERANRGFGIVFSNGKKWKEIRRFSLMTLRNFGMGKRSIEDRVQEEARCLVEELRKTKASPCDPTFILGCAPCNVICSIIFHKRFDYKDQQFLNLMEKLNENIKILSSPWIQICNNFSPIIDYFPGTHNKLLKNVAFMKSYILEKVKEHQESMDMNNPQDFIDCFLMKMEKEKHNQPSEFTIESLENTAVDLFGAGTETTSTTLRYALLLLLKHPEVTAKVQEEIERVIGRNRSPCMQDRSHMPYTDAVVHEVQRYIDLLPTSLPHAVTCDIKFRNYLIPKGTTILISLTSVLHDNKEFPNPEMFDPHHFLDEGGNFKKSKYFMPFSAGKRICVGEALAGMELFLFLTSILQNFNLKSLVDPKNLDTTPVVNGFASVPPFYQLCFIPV

Cc1oc(C(C)(C)C)cc1C(=O)Nc1cccc(/C=C/C(=O)O)c1
AC50 [1]: 4.47 µM (inconclusive)

COc1ccc(Br)cc1[C@H]1[C@H]2C=CC[C@@H](C)[C@@H]2C(=O)N1Cc1ccccc1
EC50 [2]: 163 µM (active) | AC50 [3]: 2.46 µM (active)

Clc1ccc(CCNc2nc3ccccc3s2)cc1
AC50 [1]: 12.6 µM (inconclusive)

O=C(CCCN1C(=O)/C(=C\c2ccccc2)SC1=S)Nc1ccc(O)cc1C(=O)O
EC50 [2]: 15.1 µM (active) | AC50 [3]: 15.4 µM (active)

CCC#CCOCC(=S)Nc1ccccc1
AC50 [4]: 15.8 µM (inconclusive)

Cc1cc(-c2ccc(C(C)C)c(S(=O)(=O)NCCN3CCC(C)CC3)c2)on1
EC50 [5]: > 260 µM (inactive)

CCc1cc2c(=O)c(-c3nc4ccccc4[nH]3)coc2cc1OC(=O)N1CCOCC1
AC50 [6]: 5.01 µM (inconclusive) | AC50 [1]: 8.91 µM (inconclusive)

COc1ccc2[nH]cc(CCNc3ccnc(-c4ccccc4Cl)n3)c2c1
AC50 [1]: 1 µM (inconclusive)

CCNc1ncc2nc(-c3ccccc3)c(=O)n(CCOC)c2n1
AC50 [6]: 31.6 µM (inconclusive) | AC50 [1]: 20 µM (inconclusive) | AC50 [7]: 31.6 µM (inconclusive)

CC(C)NC(=O)N1CC[C@@]2(CCCN(S(C)(=O)=O)C2)C1
AC50 [1]: 25.1 µM (inconclusive) | AC50 [7]: 39.8 µM (inconclusive)

N#C/C(C(=O)NCc1ccccc1)=C1/N=C(NC(=O)c2ccco2)c2ccccc21
EC50 [5]: > 260 µM (inactive)

Cc1cc(C)c(S(=O)(=O)N2CCN(c3ccc([N+](=O)[O-])c(NCc4ccco4)c3)CC2)c(C)c1
AC50 [1]: 0.562 µM (inconclusive) | AC50 [7]: 0.708 µM (inconclusive)

CCC(C)n1c(SCC(=O)NC(=O)Nc2ccc3c(c2)OCCO3)nc2ccccc2c1=O (configuration not stated)
EC50 [8]: > 60 µM (not active) | EC50 [5]: > 260 µM (inactive) | EC50 [9]: 2.2 µM (active)

COCCN(C(=O)C(C)C)c1nnc(-c2ccc(C(C)(C)C)cc2)s1
AC50 [10]: 2.42 µM (active)

COCCCNC(=O)c1c(NC(=O)c2cccs2)sc2c1CCCC2
AC50 [1]: 0.562 µM (inconclusive) | AC50 [7]: 4.47 µM (inconclusive)

CCOc1ccccc1CN1CCN(Cc2cn(C)nc2-c2ccccc2)CC1CCO (configuration not stated)
EC50 [5]: > 260 µM (inactive)

N=C(N)NS(=O)(=O)c1ccc(NC(=S)NC(=O)c2ccc(Br)cc2)cc1
EC50 [5]: > 260 µM (inactive)

CCN(CC)C[C@@H]1CCCCN1CC(=O)N1c2ccccc2C(=O)Nc2cccnc21
AC50 [4]: 31.6 µM (inconclusive)

CC(C)c1n[nH]c2c1C(c1cccc(OC(=O)N3CCOCC3)c1)C(C#N)=C(N)O2 (configuration not stated)
EC50 [2]: 5.8 µM (active) | AC50 [3]: 33.4 µM (active)

Cc1ccc(S(=O)(=O)N2CCCCC2)cc1NC(=O)Cc1c[nH]c2ccccc12
AC50 [11]: 19.5 µM (active)

COc1cc(C(=O)OCC(=O)Nc2cc(C)on2)cc(OC)c1OC
AC50 [6]: 15.8 µM (inconclusive) | AC50 [1]: 0.0447 µM (inconclusive)

N#CCCn1c(=O)c(-c2cccs2)nc2cnc(OCc3ccccc3)nc21
AC50 [1]: 1.58 µM (inconclusive)

COc1cccc(Nc2ncc3nc(-c4ccccc4)c(=O)n(Cc4cccs4)c3n2)c1
AC50 [4]: 20 µM (inconclusive)

COC(=O)CN1C(=O)S/C(=C/c2ccc(N3CCCCC3)o2)C1=O
AC50 [6]: 15.8 µM (inconclusive) | AC50 [1]: 5.62 µM (inconclusive) | AC50 [7]: 5.62 µM (inconclusive)

CCOC(=O)c1nc(O)c2ccccc2c1O
EC50 [2]: 5.23 µM (active) | AC50 [3]: > 380 µM (inactive)

Clc1ccccc1-c1nc(NCc2cccs2)c2ccccc2n1
AC50 [1]: 0.794 µM (inconclusive)

Cc1n[nH]c2c1C(c1ccc(Cl)cc1)C(C#N)=C(N)O2 (configuration not stated)
EC50 [2]: 6.1 µM (active) | AC50 [3]: 9.8 µM (active)

Nc1nc(S)nc2c1C1(CCCC1)Cc1ccccc1-2
AC50 [1]: 0.355 µM (inconclusive) | AC50 [7]: 11.2 µM (inconclusive)

CCOCCCn1cnc2c3ccc(OC)cc3nc-2c1O
AC50 [1]: 39.8 µM (inconclusive)

CCC(=O)N1CCN(c2ccc(NC(=O)COc3ccc(C)cc3C)cc2)CC1
EC50 [5]: > 260 µM (inactive)

O=[N+]([O-])c1ccc(N/N=C/c2sc(N3CCOCC3)nc2-c2ccccc2)c(S(=O)(=O)Nc2ccc(Cl)cc2)c1
AC50 [11]: 1.99 µM (active)

COc1cc(C(c2c(C)n[nH]c2O)c2c(C)n[nH]c2O)cc(Br)c1OC
EC50 [2]: 0.274 µM (active) | AC50 [3]: 0.756 µM (active)

CCN(C(=O)Cn1c(=O)oc2ccccc21)c1cccc(C(F)(F)F)c1
AC50 [6]: 7.08 µM (inconclusive) | AC50 [4]: 39.8 µM (inconclusive)

CN1C(=O)COc2c(C(=O)N[C@@H]3CN4CCC3CC4)cc(Cl)cc21
AC50 [4]: 39.8 µM (inconclusive)

COC(=O)[C@@]12C[C@@H](CC(=O)N3CCN(C(=O)c4ccco4)CC3)C(=O)N(Cc3ccccc3)C1=CCC(C)(C)C2
AC50 [11]: 1.81 µM (active)

COc1ccc(NC(=O)Nc2ccc3c(c2)C(=O)N([C@@H](C)CO)C[C@@H](C)[C@@H](CN(C)Cc2ccc(C(F)(F)F)cc2)O3)cc1
AC50 [11]: 13.9 µM (active)

CC1(C)Cc2ccccc2C(/C=C(\O)c2ccccc2)=N1
AC50 [10]: 1.97 µM (active)

COCC(=O)O[C@]1(CCN(C)CCCc2nc3ccccc3[nH]2)CCc2cc(F)ccc2[C@@H]1C(C)C [MIBEFRADIL]
AC50 [4]: 31.6 µM (inconclusive)
